What all share (type): physicochemical
Data set [1] can be described thus: Saturated solubility of the transition metal compound in a solvent at 23° C. Conditions: amount dissolved in 10 mL of saturated solution (Note-1).
Data set [2] is described as follows: Color change of the reaction mixture before and after polymerization (stability during polymerization). Conditions: methyl acrylate/ethylene copolymerization in toluene, 150° C., 4 MPa. The protocol:
A 400 mL stainless-steel autoclave was dried sufficiently, and a gas in the autoclave was displaced with a nitrogen gas. There was put in the autoclave, at ordinary temperature and atmospheric pressure, 1.61 g of [dodecyl(tetramethyl)cyclopentadienyl]iron carbonyl dimer (transition metal compound) obtained in Reference Example 2, and then, 18 mL of methyl acrylate manufactured by Tokyo Chemical Industry Co., Ltd. and 18 mL of purified toluene as a polymerization solvent were put therein using a syringe. After heating the mixture up to 150° C., ethylene (olefin) was pressed into the autoclave up to its pressure of 4.0 MPa. Finally, 2.0 mL of a toluene solution of 2-iodobutane (manufactured by Tokyo Chemical Industry Co., Ltd.) having a concentration of 1.0 mol/L was put therein, thereby copolymerizing methyl acrylate and ethylene at 150° C. for 10 minutes. The copolymerization reaction mixture was subjected to distillation under reduced pressure to distil away the remaining monomer (methyl acrylate) and the solvent (toluene). The resultant solid was dried for three hours in a vacuum dryer (80° C.), thereby obtaining 8.7 g of a random copolymer of methyl acrylate and ethylene. Both the original mixture before copolymerization and the copolymerization reaction mixture were red. […]

The nature of data set [3]: Polymer dipped in heptane (transfer of the transition metal compound to heptane). To be noted: poly(butyl acrylate) made at 60° C. in toluene, containing the transition metal compound. The text has this: Its molecular weight distribution (Mw/Mn) of 3.2 was a single peak distribution. When dipping said polymer in heptane, the transition metal compound contained in said polymer was transferred to heptane, and said polymer was decolorized from red to very pale yellow.
Its molecular weight distribution (Mw/Mn) of 3.9 was a single peak distribution. When dipping said polymer in heptane, the transition metal compound contained in said polymer was hardly transferred to heptane, and said polymer remained red and was not decolorized.

For `Cc1c(C)c(C)[c-](C)c1C.Cc1c(C)c(C)[c-](C)c1C.[C-]#[O+].[C-]#[O+].[C-]#[O+].[C-]#[O+].[Fe+][Fe+]` [[(pentamethyl)cyclopentadienyl]iron carbonyl dimer], the Saturated solubility is recorded as 0.8 mmol in data set [1] (hexane) and 19.3 mmol in data set [1] (toluene).
On to (cyclopentadienyl)iron carbonyl dimer, for which the values for the Saturated solubility in data set [1] (hexane) and in data set [1] (toluene) were 2.4 mmol and 167.3 mmol, respectively.
For “[dodecyl(tetramethyl)cyclopentadienyl]iron carbonyl dimer”, the “Color change of the reaction mixture before and after polymerization” value in data set [2] is recorded as “non-changed”. The “Polymer dipped in heptane” value in data set [3] is recorded as “decolorized”. In data set [1] (hexane), this molecule yielded a Saturated solubility of 131.4 mmol.
Take “[octyl(tetramethyl)cyclopentadienyl]iron carbonyl dimer”: the Saturated solubility in data set [1] (hexane) amounted to 96.8 mmol.

These data come from patent US20070270521A1, “Transition metal compound, polymerization-initiator system comprising the same, and process for producing polymer” (Sumitomo Chemical Company, Limited, priority 2006, published 2007).
